Patent publication US20250019386A1, “PYRROLO[1,2-b]-2-PYRIDAZINONE COMPOUNDS AS 5-HT4 RECEPTOR AGONISTS” (SUVEN LIFE SCIENCES LIMITED, priority 2022, published 2025)

What was measured:
[1] = Rat pharmacokinetic study; format: in vivo; details: male Wistar rats, plasma
Procedure: Male Wistar rats (250±50 g) were used as experimental animals. Animals were housed individually in polypropylene cages. Two days prior to study, rats were anesthetized with isoflurane for surgical placement of jugular vein catheter. Rats were randomly divided for oral (3 mg/kg and 10 mL/kg as dose volume) and intravenous (1 mg/kg and 2 mL/kg as dose volume) dosing (n=3/group) and fasted overnight before oral dosing (p.o.). However, rats allocated to intravenous dosing food and water was provided ad libitum.
Intravenous formulation was prepared by using water for injection as vehicle. For Oral, formulation was prepared by using reagent grade water as vehicle. The dose formulations were prepared freshly on the day of dosing.
After dosing of animal, each time point a 200 μL of blood sample was collected through jugular vein and replenished with an equivalent volume of normal saline. The collected blood sample was transferred into a labeled eppendorf tube containing 10 μL of sodium heparin (1000 IU/mL) as an anticoagulant. Typically blood samples were collected at following time points: 0.08, 0.25, 0.5, 1, 2, 4, 6, 8, and 24 h post dose. Blood was centrifuged at 4000 rpm for 10 min. Plasma was separated and stored frozen at −80° C. until analysis. The concentrations of the test compounds were quantified in plasma by qualified LC-MS/MS method using a suitable extraction technique. The test compounds were quantified in the calibration range around 1-2000 ng/mL in plasma. Study samples were analyzed using calibration samples in the batch and quality control samples spread across the batch.
Pharmacokinetic parameters Cmax, AUCt, t1/2 and bioavailability were calculated by non-compartmental model using standard non-compartmental model by using Phoenix WinNonlin 6.4 version Software.

[2] = target: hERG tail currents in HEK293-hERG cells (Homo sapiens (Human), UniProt Q12809); assay: hERG patch-clamp assay; format: cell-based; details: whole cell patch-clamp, tail current at -40 mV, read-out: half maximal inhibitory concentration of hERG tail currents (IC50)
Procedure: The HEK293-hERG cells for patch-clamp assay were cultured in DMEM: Ham's F12 (1:1 ratio) with 10% fetal bovine serum containing 0.5 mg/ml of selective antibiotic, G-418 sulfate (Calbiochem) and 0.1% penicillin and streptomycin (Thermofisher, MA, USA) in T-75 flask. Cells were harvested at 70-80% confluency by washing with Hanks' Balanced Salt Solution lacking Mg^2+ and Ca^2+ ions and subsequent addition of accumax (2.5 mL) (Sigma Aldrich, MO, USA) and incubated the flask at 5% CO2 and 37° C. until cells start sliding of the surface. After cells have completely detached from the surface about 10 mL of complete media without selective antibiotic was added and pipetted to detach the cell clumps. Additional 7.5 mL of complete media was added to collect the residual cells in the flask and cell suspension was incubated at 5% CO2 and 37° C. for 30 min. […] The peak current is measured at −40 mV tail currents using Patchliner instrument. The I-V pulse protocol was pulsed every 10 s and online analysis were recorded by substituting the leak current from the peak current and IC50 values were calculated from IGOR PRO software (WaveMetrics, Inc. Portland, OR, USA).

hERG tail currents in HEK293-hERG cells, sequence (Q12809 whole entry): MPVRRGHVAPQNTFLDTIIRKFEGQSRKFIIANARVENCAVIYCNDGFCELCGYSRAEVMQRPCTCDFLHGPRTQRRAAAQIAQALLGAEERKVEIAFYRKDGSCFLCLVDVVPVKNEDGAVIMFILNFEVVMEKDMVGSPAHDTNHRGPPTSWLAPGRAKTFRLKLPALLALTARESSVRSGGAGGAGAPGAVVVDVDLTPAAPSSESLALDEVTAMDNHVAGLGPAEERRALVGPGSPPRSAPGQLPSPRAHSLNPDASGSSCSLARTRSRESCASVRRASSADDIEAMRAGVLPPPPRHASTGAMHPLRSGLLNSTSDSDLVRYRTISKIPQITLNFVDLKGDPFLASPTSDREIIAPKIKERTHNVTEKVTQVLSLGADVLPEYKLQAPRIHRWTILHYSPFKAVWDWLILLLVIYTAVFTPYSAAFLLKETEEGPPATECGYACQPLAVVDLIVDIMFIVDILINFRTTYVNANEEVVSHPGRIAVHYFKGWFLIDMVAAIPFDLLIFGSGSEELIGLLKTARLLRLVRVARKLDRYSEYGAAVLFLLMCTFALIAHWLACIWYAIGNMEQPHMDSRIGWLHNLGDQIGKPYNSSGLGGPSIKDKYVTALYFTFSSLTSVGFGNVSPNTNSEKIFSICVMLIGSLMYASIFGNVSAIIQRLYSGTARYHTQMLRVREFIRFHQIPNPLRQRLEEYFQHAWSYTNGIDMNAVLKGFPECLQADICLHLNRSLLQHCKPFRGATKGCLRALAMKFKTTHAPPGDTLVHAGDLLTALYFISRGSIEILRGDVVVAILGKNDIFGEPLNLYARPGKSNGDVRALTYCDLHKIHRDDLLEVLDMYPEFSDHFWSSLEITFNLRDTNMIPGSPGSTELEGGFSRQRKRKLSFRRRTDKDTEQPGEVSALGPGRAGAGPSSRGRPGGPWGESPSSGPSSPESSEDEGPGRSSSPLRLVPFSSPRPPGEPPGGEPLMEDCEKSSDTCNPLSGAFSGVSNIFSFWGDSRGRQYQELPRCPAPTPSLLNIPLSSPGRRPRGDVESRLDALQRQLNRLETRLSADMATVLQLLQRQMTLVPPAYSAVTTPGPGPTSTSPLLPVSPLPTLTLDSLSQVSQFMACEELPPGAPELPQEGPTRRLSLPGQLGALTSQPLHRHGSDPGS

In the case of `CC(C)n1c(=O)c(C(=O)NC2CC3CCC(C2)N3C[C@@H](O)CN(C)S(C)(=O)=O)cc2cccn21.O=C(O)C(O)C(O)C(=O)O` (single isomer, unassigned) [Example 2], the AUC(0-t) ([1]; intravenous (bolus), 1 mg/kg) is reported as 0.065 ± 0.003 µg·h/mL, the half-life ([1]; intravenous (bolus), 1 mg/kg) is reported as 1.5 ± 0.5 h and the AUC(0-t) ([1]; oral (gavage), 3 mg/kg) is reported as 0.16 ± 0.035 µg·h/mL. The Cmax ([1]; oral (gavage), 3 mg/kg) was 0.051 ± 0.019 µg/mL, the bioavailability ([1]; oral 3 mg/kg vs intravenous 1 mg/kg) was 83 ± 18% and the IC50 [2] was over 10 µM.
